The values below come from patent US20210259251A1, “[…] PREVENT AND CONTROL FUNGAL PATHOGENS” (priority 2018, published 2021).

The test system of experiment [1] is Fusarium gramineum. The experiment in a line: Fungitoxic activity of combined isothiocyanates, 48 well plates, synergy (CompuSyn).
Procedure: (§1) Applicants examined fungitoxic activities of combined isothiocyanates in three necrotrophic fungal species, i.e. Alternaria radicina (class: Dothideomycetes; order: Pleosporales; host: carrot), Fusarium gramineum (class: Sordariomycetes; order: Hypocreales; host: cereals) and Plectosphaerella cucumerina (class: Sordariomycetes; order: Glomerellales; host: tomato and cucurbits).
(§2) Fungitoxic activities were tested in 48 well tissue culture plates. […] Synergistic fungitoxic activities was then estimated as in Chou (2006), and the CompuSyn software (www.combosyn.com) was used to determine the Combination Index (CI) for combinations of two molecules and the presence of synergism (CI<1).
The next experiment concerns Phytophthora cactorum. The experiment in a line: microbe, parasite or virus in culture. In kind it is cell-based.
The test system of experiment [2] is Fusarium gramineum. Description: microbe, parasite or virus in culture. In kind it is cell-based. As to conditions: for EC50: read-out: ED50 F. gramineum.
In another experiment the test system is Botrytis cinerea. The experiment in a line: In vitro fungal bioassay, fungitoxic activity. Conditions: for ED95 Botrytis cinerea: effect in 95% of the population, maximal concentration 1500 μM; for fungitoxic activity against Botrytis cinerea (in words): in vitro, dose range between 10 and 1500 μM.
Another experiment relates to Alternaria radicina. Description: Fungitoxic activity of combined isothiocyanates, 48 well plates, synergy (CompuSyn).
For experiment [3], the system named is Plectosphaerella cucumerina. The description is as above.
Procedure: as §1, §2
For a further experiment, the system named is Guignardia bidwellii. Description: In vitro fungal bioassay, fungitoxic activity. Format: cell-based. Conditions: Phyllosticta ampelicida; Table 5; unit from the concentration series of the method; read-out: ED50 G. bidwellii.
In another experiment the test system is Phytophthora infestans. Description: microbe, parasite or virus in culture. In kind it is cell-based. As to conditions: read-out: ED50 P. infestans.
A further experiment relates to Fusarium oxysporum. The experiment in a line: In vitro fungal bioassay, fungitoxic activity. Conditions: maximal concentration 1500 μM; for ED95 F. oxysporum: Table 2, effect in 95% of the population; for fungitoxic activity against Fusarium oxysporum (in words): in vitro.
A further experiment has as its system Serpula lacrymans. The experiment in a line: In vitro antifungal assay (mycelial growth on PDA). Conditions: read-out: ED50.
Another experiment relates to Hemenoscyphus fraxineus. Description: In vitro antifungal assay (mycelial growth on PDA). As to conditions: read-out: ED50.
The test system of the next experiment is Septoria tritici. The experiment in a line: In vitro antifungal assay (mycelial growth on PDA). Conditions: Zymoseptoria tritici, read-out: ED50.
A further experiment relates to Colletotrichum dematium. Description: In vitro antifungal assay (mycelial growth on PDA). Conditions: read-out: ED50.
Where [4] appears, read: 168 h, read-out: EC50 Molecule 2.
The mark [5] stands for this setting: Table 3, maximal dosage 1500 μM.
Setting [6] is: 168 h, read-out: EC50 Molecule 1.
[7] abbreviates: Fusarium, Table 5, unit from the concentration series of the method.
Setting [8] is: read-out: EC50 Molecule 1, Alternaria radicina, first molecule alone, range 10-850 μM, 850 = no fungitoxic activity in the tested range.
Setting [9] is: 168 h, read-out: EC50 Molecule 2, Alternaria radicina, second molecule alone, range 10-850 μM, 850 = no fungitoxic activity in the tested range.

“Also recorded” adds a separate entry of the source. Read-outs that look alike come from different tables or passages of the source.

Procedure for Alternaria radicina: as §1, §2

On to `C[S+]([O-])CCCCCCCCCN=C=S` (centres unmarked) [Molecule 9MSOH, 1-Isothiocyanato-9-(methylsulfinyl)-nonane], for which the EC50 with Fusarium gramineum [1] (setting [4]) stood at 553 µM.

With `CS(=O)(=O)CCCCCCN=C=S` [Molecule 6MSOOH, 1-Isothiocyanato-6-(methylsulfonyl)-hexane], the “ED50 P. cactorum” value in the experiment with Phytophthora cactorum (setting [5]) is below 1500 µM. Moreover, the EC50 in the experiment on Fusarium gramineum [2] (setting [5]) is given as below 1500 µM. In the experiment with Fusarium gramineum [2] (in the dosage of 1500 μM), the “fungistatic effect on Fusarium gramineum (in words)” value is given as “not fungistatic”.

`CS(=O)(=O)CCCCCN=C=S` [Molecule 5MSOOH, 1-Isothiocyanato-5-(methylsulfonyl)-pentane]: the “ED95 Botrytis cinerea” value with Botrytis cinerea (Table 4) was below 1500 µM. For the same compound, in the experiment on Botrytis cinerea, the “fungitoxic activity against Botrytis cinerea (in words)” value is on record as “none of these single compounds revealed fungitoxic effect”.

With `CS(=O)(=O)CCCN=C=S` [Molecule 3MSOOH, 1-Isothiocyanato-3-(methylsulfonyl)-propane], the EC50 in the experiment with Alternaria radicina (setting [4]) was determined as 469 µM; with Fusarium gramineum [1] (setting [4]) it was 387 µM; in the experiment on Fusarium gramineum [1] (read-out: EC50 Molecule 2) it was 387 µM; in experiment [3] (setting [4]) it was 536 µM.

Consider `CS(=O)(=O)CCCCCCCCN=C=S` [Molecule 8MSOOH, 1-Isothiocyanato-8-(methylsulfonyl)-octane], for which the “ED95 Botrytis cinerea” value in the experiment with Botrytis cinerea (Table 2) and in the experiment on Botrytis cinerea (Table 4) was below 1500 µM each time. For the same compound, the “fungitoxic activity against Botrytis cinerea (in words)” value with Botrytis cinerea is recorded as “no fungitoxic effect; also recorded: none of these single compounds revealed fungitoxic effect”. Also, the EC50 with Phytophthora cactorum (Phytophthora cactorum, read-out: ED50 P. cactorum) was 628 µM; in the experiment with Fusarium gramineum [1] (setting [6]), above 850 µM; with Fusarium gramineum [2] (Fusarium, Table 3, maximal dosage 1500 μM) it was 464 µM; in the experiment on Fusarium gramineum [2] (setting [7]), 22.2 µM; with Guignardia bidwellii, 464 µM; in the experiment with Phytophthora infestans, 350 µM. In [3] (read-out: EC50 Molecule 1), the EC50 is above 850 µM. Besides, in the experiment on Fusarium oxysporum, the “ED95 F. oxysporum” value was below 1500 µM. Further, the “fungitoxic activity against Fusarium oxysporum (in words)” value with Fusarium oxysporum is “no fungitoxic effect”.

Regarding `C[S+]([O-])CCCCC/C=C/CN=C=S` (centres unmarked) [Molecule 8CSOH, (E)-1-isothiocyanato-8-(methylsulfinyl)oct-2-ene], the EC50 in the experiment on Alternaria radicina (setting [8]) is 472 µM; in the experiment on Alternaria radicina (read-out: EC50 Molecule 1, first molecule alone, range 10-850 μM, 850 = no fungitoxic activity in the tested range) it was 704 µM; in the experiment with Fusarium gramineum [1] (setting [6]) it was above 850 µM; in the experiment with Fusarium gramineum [1] (read-out: EC50 Molecule 1), above 850 µM; in [3] (read-out: EC50 Molecule 1), 273 µM.

On to `CS(=O)(=O)CCCCCCCCCN=C=S` [Molecule 9MSOOH, 1-Isothiocyanato-9-(methylsulfonyl)-nonane], for which the EC50 with Fusarium gramineum [1] (setting [4]) was above 850 µM.

With `C[S+]([O-])CCCN=C=S` (centres unmarked) [Molecule 3MSOH, 1-Isothiocyanato-3-(methylsulfinyl)-propane], the EC50 worked out at 786 µM in the experiment on Alternaria radicina (setting [4]), 525 µM with Fusarium gramineum [1] (setting [4]), 525 µM with Fusarium gramineum [1] (read-out: EC50 Molecule 2) and 627 µM in experiment [3] (setting [4]).

With `CCS(=O)(=O)CCCCCCCCN=C=S` [Molecule 8ESOOH, 1-(ethylsulfonyl)-8-isothiocyanatooctane], the EC50 in the experiment on Alternaria radicina (setting [9]) is above 850 µM.

Turning to `CS(=O)(=O)CCCCCCCN=C=S` [7-methylsulfonyl-heptyl isothiocyanate], the EC50 in the experiment with Serpula lacrymans is 150 µM; with Hemenoscyphus fraxineus it was 770 µM; in the experiment with Septoria tritici it was 350 µM; in the experiment with Colletotrichum dematium it was 650 µM. The “fungitoxic activity against Botrytis cinerea (in words)” value in the experiment with Botrytis cinerea is reported as “no fungitoxic activity; also recorded: non-active”. Also, the “fungitoxic activity against Fusarium oxysporum (in words)” value with Fusarium oxysporum is “non-active”.

Turning to `C[S+]([O-])CCCCCCCN=C=S` (centres unmarked) [Molecule 7MSOH, 1-Isothiocyanato-7-(methylsulfinyl)-heptane], the EC50 with Alternaria radicina (setting [9]) was 537 µM; in the experiment on Fusarium gramineum [1] (setting [4]) it was 586 µM; in the experiment with Fusarium gramineum [1] (read-out: EC50 Molecule 2) it was 586 µM; in experiment [3] (setting [4]) it was 337 µM.

Take `C[S+]([O-])CCCCCN=C=S` (centres unmarked) [Molecule 5MSOH, 1-isothiocyanato-5-(methylsulfinyl)-pentane]: the “ED95 Botrytis cinerea” value in the experiment with Botrytis cinerea (Table 4) was below 1500 µM. Also, the “fungitoxic activity against Botrytis cinerea (in words)” value in the experiment on Botrytis cinerea is on record as “none of these single compounds revealed fungitoxic effect”.

For `CC[S+]([O-])CCCCCCCCN=C=S` (centres unmarked) [Molecule 8ESOH, 1-(ethylsulfinyl)-8-isothiocyanatooctane], the EC50 is 472 µM with Alternaria radicina (setting [9]), 533 µM in the experiment on Fusarium gramineum [1] (setting [6]) and 533 µM in the experiment on Fusarium gramineum [1] (read-out: EC50 Molecule 1).

`C[S+]([O-])CCCCN=C=S` (centres unmarked) [Molecule 4MSOH, 1-Isothiocyanato-4-(methylsulfinyl)-butane]: in the experiment with Phytophthora cactorum, the “ED50 P. cactorum” value is below 1500 µM. Further, the EC50 with Fusarium gramineum [2] (Fusarium) is 628 µM.

With `CS(=O)(=O)CCCCc1cccc(CN=C=S)c1` [Molecule 8ASOOH, 1-(isothiocyanatomethyl)-3-(4-(methylsulfonyl)butyl)benzene], in the experiment with Alternaria radicina (setting [9]), the EC50 is above 850 µM.

As to `C[S+]([O-])CCCCCCCCN=C=S` (centres unmarked) [Molecule 8MSOH, 1-Isothiocyanato-8-(methylsulfinyl)-octane], the “ED95 Botrytis cinerea” value with Botrytis cinerea (Table 2) and in the experiment with Botrytis cinerea (Table 4) was below 1500 µM each time. The “fungitoxic activity against Botrytis cinerea (in words)” value with Botrytis cinerea is on record as “no fungitoxic effect; also recorded: none of these single compounds revealed fungitoxic effect”. For the same compound, the EC50 worked out at 317 µM with Fusarium gramineum [1] (setting [6]); 317 µM with Fusarium gramineum [1] (setting [4]); 317 µM with Fusarium gramineum [1] (read-out: EC50 Molecule 1); 292 µM in the experiment with Fusarium gramineum [2] (setting [7]); 30.4 µM with Guignardia bidwellii; 26.4 µM with Phytophthora infestans. For the same compound, the “ED95 F. oxysporum” value in the experiment with Fusarium oxysporum was below 1500 µM. The “fungitoxic activity against Fusarium oxysporum (in words)” value in the experiment on Fusarium oxysporum is “no fungitoxic effect”.

Turning to `CS(=O)(=O)CCCCCCCCC#N` [Molecule 8MSOON, 8-(methylsulfonyl)octylnitrile], the “ED95 Botrytis cinerea” value with Botrytis cinerea (Table 2) was below 1500 µM. For the same compound, the “ED95 F. oxysporum” value with Fusarium oxysporum is below 1500 µM.

Consider `C[S+]([O-])CCCCc1cccc(CN=C=S)c1` (centres unmarked) [Molecule 8ASOH, 1-(isothiocyanatomethyl)-3-(4-(methylsulfinyl)butyl)benzene], for which the EC50 in the experiment with Alternaria radicina (setting [8]) came out at 723 µM.
